Measurements taken from patent US10975037B2 (priority 2018, dated 2021).
Where two headings read alike, the source gives them in different places.

What was measured:
[1] = target: human RORγt ligand binding domain (RORγt LBD) (Homo sapiens (Human), UniProt P51449); test: RORγt ThermoFluor® assay (thermal shift binding)
Description: This approach is applicable to a wide variety of systems, and rigorous in theoretical interpretation through quantitation of equilibrium binding constants (KD).
The shift in the melting point described as a ΔTm is proportional to the concentration and affinity of the ligand.
RORγt ThermoFluor® Assay Construct
Reference wells contained RORγt without compounds, and the assay conditions were as follows: • 0.065 mg/mL RORγt • 60 μM 1,8-ANS • 100 mM Hepes, pH 7.0 • 10 mM NaCl • 2.5 mM GSH • 0.002% Tween-20
Project compounds were arranged in a pre-dosed mother plate (Greiner Bio-one) wherein compounds are serially diluted in 100% DMSO by 1:2 from a high concentration of 10 mM over 12 columns within a series (column 12 is a reference well containing DMSO, no compound). The compounds were robotically dispensed directly into assay plates (1×=46 nL) using a Hummingbird capillary liquid handling instrument (Digilab). Following compound dispense, protein and dye in buffer was added to achieve the final assay volume of 3 μL, followed by 1 μL of silicone oil.

full-length human RORγt = full-length human RORγt (Homo sapiens (Human), UniProt P51449); test: RORγt (full-length human) reporter assay, conditions A or B, HEK293T cells; assay type: cell-based; conditions: for inhibition at 2 µM: 2 μM compound concentration; for IC50: RORγt (FL) Reporter Assay A or B, IC50, HEK293T cells; for inhibition at 3 µM: 3 μM compound concentration (footnote *)
Description: RORγt (Full-Length Human) Reporter Assay:
(§1) HEK293T cells were plated at 35,000 per well in 96-well plate in medium of DMEM with 10% FBS. […] After overnight (16 to 20 hours) incubation, media were removed and cells were lysed with 50 L Glo Lysis Buffer (Promega) for 10-15 minutes followed by 10 minute incubation with 50 μL Dual Glo reagent (Promega) at room temperature. Firefly luciferase luminescence was measured using a BMG Pherastar plate reader. To each well, 50 μL Stop and Glo reagent was added and incubated for 10 minutes at room temperature. Renilla luminescence was measured using a BMG Pherastar plate reader. To calculate the effect of compounds on RORγt activity, firefly values were normalized against values of DMSO only and values of reference compound at saturating concentration, then further normalized against Renilla signals. IC50s were generated by plotting final Renilla normalized data against compound concentration and percent inhibition was calculated against DMSO control.
as §1, with “at 8750 cells” for “at 35,000”, “in 384-well” for “in 96-well”, “with 20” for “with 50”, “well, 20” for “well, 50”

[2] = read-out: ThermoFluor® Assay, Kd
[3] = HEK-293T, read-out: RORγt (FL) Reporter Assay A or B, % inhibition
[4] = HEK-293T, 0.22 μM compound concentration (footnote *******), read-out: RORγt (FL) Reporter Assay A or B, % inhibition

full-length human RORγt, sequence (P51449 other isoform, or with tags, fused parts or gaps): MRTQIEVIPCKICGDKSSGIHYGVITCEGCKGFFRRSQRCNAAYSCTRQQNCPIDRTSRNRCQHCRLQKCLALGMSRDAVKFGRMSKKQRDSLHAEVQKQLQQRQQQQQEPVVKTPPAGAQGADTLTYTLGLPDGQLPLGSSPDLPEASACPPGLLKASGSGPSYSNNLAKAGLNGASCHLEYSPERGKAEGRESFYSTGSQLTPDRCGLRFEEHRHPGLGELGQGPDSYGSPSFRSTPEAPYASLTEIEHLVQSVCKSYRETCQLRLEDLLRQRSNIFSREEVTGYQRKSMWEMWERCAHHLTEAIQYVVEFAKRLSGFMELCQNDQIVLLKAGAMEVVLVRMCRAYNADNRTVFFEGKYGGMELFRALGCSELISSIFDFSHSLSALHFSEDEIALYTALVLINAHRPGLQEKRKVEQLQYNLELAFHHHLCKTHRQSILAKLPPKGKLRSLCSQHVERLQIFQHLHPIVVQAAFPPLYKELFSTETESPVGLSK
human RORγt ligand binding domain (RORγt LBD), sequence (P51449 other isoform, or with tags, fused parts or gaps): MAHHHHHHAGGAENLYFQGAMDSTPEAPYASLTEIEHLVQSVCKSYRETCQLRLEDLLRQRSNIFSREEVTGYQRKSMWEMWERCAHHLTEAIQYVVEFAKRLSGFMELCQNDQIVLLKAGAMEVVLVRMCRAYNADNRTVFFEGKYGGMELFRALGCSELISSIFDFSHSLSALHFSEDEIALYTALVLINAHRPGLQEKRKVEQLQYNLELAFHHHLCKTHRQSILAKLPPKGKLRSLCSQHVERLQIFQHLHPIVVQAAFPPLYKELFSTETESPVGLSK

| Kd [1, 2] [nM] | IC50 (full-length human RORγt) [nM] | Kd ([1]; ThermoFluor® Assay, Kd) [nM] | SMILES | also measured |
| --- | --- | --- | --- | --- |
| 11 | > 2000 |  | CCn1nc(C(=O)NC[C@]2(O)CC[C@@H](S(C)(=O)=O)CC2)c(Cl)c1-c1ccc(CCC(F)(F)F)cc1OC(F)(F)F [Example 188, 4-Chloro-1-ethyl-N-(((1s,4s)-1-hydroxy-4-(methylsulfonyl)cyclohexyl)methyl)-5-(2-(trifluoromethoxy)-4-(3,3,3-trifluoropropyl)phenyl)-1H-pyrazole-3-carboxamide] | inhibition at 2 µM (full-length human RORγt; [3]): 34% |
| 3.1 | 9 |  | CC(C)(Cc1ccc(-c2c(Cl)c(C(=O)NC[C@]3(O)CC[C@@H](S(C)(=O)=O)CC3)nn2CCCC#N)c(OC(F)F)c1)C(F)(F)F [Example 229, 4-Chloro-1-(3-cyanopropyl)-5-(2-(difluoromethoxy)-4-(3,3,3-trifluoro-2,2-dimethylpropyl)phenyl)-N-(((1s,4s)-1-hydroxy-4-(methylsulfonyl)cyclohexyl)methyl)-1H-pyrazole-3-carboxamide] | inhibition at 3 µM (full-length human RORγt; [3]): 78% |
|  | 410 | 980 | CCn1nc(C(=O)NC[C@H]2CC[C@H](S(C)(=O)=O)CC2)c(Cl)c1-c1ccc(C2(O)CCC(C(F)(F)F)CC2)cc1OC(F)F (single isomer, unassigned) [Example 114, 4-Chloro-5-(2-(difluoromethoxy)-4-((1s*,4s*)-1-hydroxy-4-(trifluoromethyl)cyclohexyl)phenyl)-1-ethyl-N-(((1r,4r)-4-(methylsulfonyl)cyclohexyl)methyl)-1H-pyrazole-3-carboxamide] | inhibition at 1 µM (full-length human RORγt; HEK-293T, 1 μM compound concentration (footnote ***), read-out: RORγt (FL) Reporter Assay A or B, % inhibition): 82% |
|  | 1.6 | 0.14 | CCn1nc(C(=O)NC[C@@H]2CC[C@@H](S(C)(=O)=O)CO2)c(Cl)c1-c1ccc(CC(C)(C)C(F)(F)F)cc1OC(F)F (racemic) [Example 14, 4-Chloro-5-(2-(difluoromethoxy)-4-(3,3,3-trifluoro-2,2-dimethylpropyl)phenyl)-1-ethyl-N-(((2RS,5SR)-5-(methylsulfonyl)tetrahydro-2H-pyran-2-yl)methyl)-1H-pyrazole-3-carboxamide] | inhibition at […] (full-length human RORγt; [4]): 99% |
| 1.6 | 23 |  | C[C@H](Cc1ccc(-c2c(Cl)c(C(=O)NC[C@H]3CC[C@H](S(C)(=O)=O)CC3)nn2C)c(OC(F)F)c1)C(F)(F)F [Example 151, 4-Chloro-5-(2-(difluoromethoxy)-4-((R)-3,3,3-trifluoro-2-methylpropyl)phenyl)-1-methyl-N-(((1r,4R)-4-(methylsulfonyl)cyclohexyl)methyl)-1H-pyrazole-3-carboxamide] | inhibition at 1 µM (full-length human RORγt; [3]): 92% |
|  | 38 | 1.9 | CCn1nc(C(=O)NC[C@]2(O)CC[C@@H](S(N)(=O)=O)CC2)c(Cl)c1-c1ccc(C[C@H](C)C(F)(F)F)cc1OC(F)F (single isomer, unassigned) [Example 60, 4-Chloro-5-(2-(difluoromethoxy)-4-((S*)-3,3,3-trifluoro-2-methylpropyl)phenyl)-1-ethyl-N-(((1s,4R)-1-hydroxy-4-sulfamoylcyclohexyl)methyl)-1H-pyrazole-3-carboxamide] | inhibition at 3 µM (full-length human RORγt; [3]): 114% |
|  | 8 | 0.28 | CCCn1nc(C(=O)NC[C@H]2CC[C@H](S(C)(=O)=O)CC2)c(Cl)c1-c1ccc(C[C@H](C)C(F)(F)F)cc1OC (single isomer, unassigned) [Example 41, 4-Chloro-5-(2-methoxy-4-((S*)-3,3,3-trifluoro-2-methylpropyl)phenyl)-N-(((1r,4S)-4-(methylsulfonyl)cyclohexyl)methyl)-1-propyl-1H-pyrazole-3-carboxamide] | inhibition at 0.67 µM (full-length human RORγt; HEK-293T, 0.67 μM compound concentration (footnote ****), read-out: RORγt (FL) Reporter Assay A or B, % inhibition): 98% |
| 0.29 | 10 |  | CCn1nc(C(=O)NC[C@H]2CC[C@H](S(C)(=O)=O)CC2)c(Cl)c1-c1ccc(CC(C)C)cc1OC [Example 72, 4-Chloro-1-ethyl-5-(4-isobutyl-2-methoxyphenyl)-N-(((1r,4r)-4-(methylsulfonyl)cyclohexyl)methyl)-1H-pyrazole-3-carboxamide] | inhibition at 2 µM (full-length human RORγt; [3]): 67% |
| 230 | 510 |  | CCn1nc(C(=O)NC[C@H]2CC[C@@H](S(C)(=O)=O)CC2)c(Cl)c1-c1ccc(N[C@H](C)C(F)(F)F)cc1Cl [Example 175, 4-Chloro-5-(2-chloro-4-(((R)-1,1,1-trifluoropropan-2-yl)amino)phenyl)-1-ethyl-N-(((1s,4S)-4-(methylsulfonyl)cyclohexyl)methyl)-1H-pyrazole-3-carboxamide] | inhibition at 2 µM (full-length human RORγt; [3]): 88% |
| 3.9 | 29 |  | COc1cc(N[C@H](C)C(F)(F)F)ccc1-c1c(Cl)c(C(=O)NC[C@H]2CC[C@H](S(C)(=O)=O)CC2)nn1C(C)(C)C [Example 26, 1-(tert-Butyl)-4-chloro-5-(2-methoxy-4-(((R)-1,1,1-trifluoropropan-2-yl)amino)phenyl)-N-(((1r,4R)-4-(methylsulfonyl)cyclohexyl)methyl)-1H-pyrazole-3-carboxamide] | inhibition at 6 µM (full-length human RORγt; HEK-293T, read-out: RORγt (FL) Reporter Assay A or B, % inhibition @ 6 μM, 6 μM compound concentration): 108% |
| 39 | 84 |  | CCn1nc(C(=O)NC[C@H]2CC[C@H](S(C)(=O)=O)CC2)c(Cl)c1-c1ccc(OCC(C)(F)F)cc1OC [Example 214, 4-Chloro-5-(4-(2,2-difluoropropoxy)-2-methoxyphenyl)-1-ethyl-N-(((1r,4r)-4-(methylsulfonyl)cyclohexyl)methyl)-1H-pyrazole-3-carboxamide] | inhibition at 2 µM (full-length human RORγt; [3]): 79% |
| 47 | 220 |  | CCn1nc(C(=O)NC[C@]2(O)CC[C@@H](S(C)(=O)=O)CC2)c(Cl)c1-c1ccc(C2(O)CCC(F)(F)CC2)cc1OC(F)F [Example 104, 4-Chloro-5-(4-(4,4-difluoro-1-hydroxycyclohexyl)-2-(difluoromethoxy)phenyl)-1-ethyl-N-(((1s,4s)-1-hydroxy-4-(methylsulfonyl)cyclohexyl)methyl)-1H-pyrazole-3-carboxamide] | inhibition at 3 µM (full-length human RORγt; [3]): 98% |
| 0.16 | 4.4 |  | CCn1nc(C(=O)NC[C@H]2CC[C@H](S(C)(=O)=O)CC2)c(Cl)c1-c1ccc(CC(C)(C)C(F)(F)F)cc1OC(F)F [Example 2, 4-Chloro-5-(2-(difluoromethoxy)-4-(3,3,3-trifluoro-2,2-dimethylpropyl)phenyl)-1-ethyl-N-(((1r,4r)-4-(methylsulfonyl)cyclohexyl)methyl)-1H-pyrazole-3-carboxamide] | inhibition at […] (full-length human RORγt; [4]): 94% |
|  | 3.6 | 1.1 | CCn1nc(C(=O)NC[C@]2(O)CC[C@@H](S(C)(=O)=O)CC2)c(Cl)c1-c1ccc(C[C@@H](C)C(F)(F)F)cc1OC(F)F (single isomer, unassigned) [Example 136, 4-Chloro-5-(2-(difluoromethoxy)-4-((R*)-3,3,3-trifluoro-2-methylpropyl)phenyl)-1-ethyl-N-(((1s,4S)-1-hydroxy-4-(methylsulfonyl)cyclohexyl)methyl)-1H-pyrazole-3-carboxamide] | inhibition at […] (full-length human RORγt; HEK-293T, 0.33 μM compound concentration (footnote *****), read-out: RORγt (FL) Reporter Assay A or B, % inhibition): 89% |

| SMILES | Kd [1, 2] [nM] | IC50 (full-length human RORγt) [nM] | Kd ([1]; ThermoFluor® Assay, Kd) [nM] | also measured |
| --- | --- | --- | --- | --- |
| Cn1nc(C(=O)NC[C@H]2CC[C@H](S(C)(=O)=O)CC2)c(Cl)c1-c1ccc(CC(C)(C)C(F)(F)F)cc1OC(F)F [Example 155, 4-Chloro-5-(2-(difluoromethoxy)-4-(3,3,3-trifluoro-2,2-dimethylpropyl)phenyl)-1-methyl-N-(((1r,4r)-4-(methylsulfonyl)cyclohexyl)methyl)-1H-pyrazole-3-carboxamide] | 0.33 | 4.2 |  |  |
